Assay results reported in PubChem BioAssay AID449762 (Southern Research Specialized Biocontainment Screening …, 2010).
Records with an inconclusive call do not appear.

Test system: M. tuberculosis H37Rv growth inhibition, 7H9 media
Assay: M. tuberculosis growth inhibition, HTS (AID 449762);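 also: bacterial growth assessed after seven days of incubation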
Conditions: for IC90: measured here: IC90 growth inhibition

| SMILES | IC50 [µM] | IC90 [µM] |
| --- | --- | --- |
| CCCC(=O)OCCNc1cc(SCCC(=O)OC)c2nonc2c1[N+](=O)[O-] | 1.49 | 5.7 |
| Cc1ccc(C(=O)Nc2ccc3c4c(cccc24)CC3)cc1[N+](=O)[O-] | < 0.2 | > 100 |
| COc1ccc2nc(NC(=O)C3CCCN(S(=O)(=O)c4cccs4)C3)sc2c1 (stereo not given) | 18 | 27.6 |
| CCOC(=O)N1CCN(Cc2cc(Cl)c3cccnc3c2O)CC1 | 11 | 21 |
| CCOc1ccc(NC(=O)c2sc3nc(C)nc(N4CCOCC4)c3c2C)cc1 | 35.6 | 61.3 |
| Nc1c(N(CCC2=CCCCC2)C(=O)c2ccc([N+](=O)[O-])o2)c(=O)[nH]c(=O)n1Cc1ccccc1 | 16.6 | 30.2 |
| CCOC(=O)CSc1ccc(C(=O)Nc2ccc(OC)cc2)cn1 | < 0.2 | > 100 |
| Cc1cc(N2CCC(C)CC2)nc(-n2nc(C)cc2C)n1 | < 0.2 | 5.47 |
| CCN(CC)CCNC(=O)c1ccc(NC(=O)c2cn(-c3ccccc3)nc2-c2cccs2)cc1 | 19 | 27.1 |
| Oc1ccc(Nc2nc(-c3ccc4ccccc4c3)cs2)cc1 | 42.9 | > 100 |
| COC(=O)CSc1nnc(-c2sc3cc(OC)ccc3c2Cl)n1C | 9.08 | > 100 |
| COc1ccc(-c2cc(-c3ccc(OC)cc3)[nH]n2)cc1 | 0.33 | 1 |
| O=C1CC(=C(c2ccccc2)c2ccccc2)C(=O)N1CCCCN1CCN(c2ccccc2)CC1 | 22.8 | 26 |
| COC(=O)c1ccc2c(c1O)C(=O)c1ccccc1C2=O | 65.4 | 77.9 |
| CC1CCC/C(=N\NC(=S)Nc2ccccc2)C1 (stereo not given) | 43.2 | 67.5 |
| CC(C)(C)c1ccc(-c2nc(-c3ccncc3)no2)cc1 | 9.16 | 33.6 |
| COc1ccc(C2c3[nH]c4ccccc4c3CCN2Cc2cccn2-c2ncccn2)cc1C (stereo not given) | 25.2 | 28.9 |
| O=[N+]([O-])c1ccc(COc2ccc(-c3[nH]ncc3-c3ccc(Cl)cc3)c(O)c2)cc1 | 67.1 | > 100 |
| CC(C)=N/N=C1/NC(=O)C(Cc2ccccc2)S1 (stereo not given) | 23.4 | 25.9 |
| Cc1cccc(/C=C/C(=O)c2ccc([N+](=O)[O-])o2)c1 | < 0.2 | < 0.2 |
| CCOC(=O)c1c(NC(=O)CSc2nc3ccc(OC)cc3[nH]2)sc2c1CC(C)(C)NC2(C)C | 21.1 | 26.2 |
| COc1ccccc1N1C(=O)NC(=O)/C(=C/c2ccc([N+](=O)[O-])s2)C1=O | – | > 100 |
| O=c1c(C=Nc2ccc(Oc3ccccc3)cc2)c[nH]n1-c1cccc(Cl)n1 | 10.6 | > 100 |

| SMILES | IC50 [µM] | IC90 [µM] |
| --- | --- | --- |
| COc1cc(/C=C/C(=O)c2c(O)n(CCc3ccccc3)c(=O)[nH]c2=O)ccc1O | 4.59 | 11.5 |
| CCOc1ccc(C(=O)CCN2CCCCCC2)cc1 | 11.9 | 17.4 |
| Brc1ccc2c(c1)C(OC1CN3CCC1CC3)c1ccccc1CS2 (stereo not given) | 25.2 | 28.4 |
| O=C(O)/C=C/C(=O)Nc1ccc(-c2ccccc2)cc1 | 34.3 | > 100 |
| CS(=O)(=O)c1ccc([C@@H](O)[C@@H](CF)NC(=O)C(Cl)Cl)cc1 | 10.1 | 24.7 |
| Cc1sc2nc(CN(C(=O)NC3CCCCC3)C3CCCC3)[nH]c(=O)c2c1C | 30.5 | > 100 |
| O=C(Nc1nnc(C2=COCCO2)o1)c1ccc(Cc2ccccc2)cc1 | 3.26 | 9.81 |
| Cc1ccc(NC(=O)CCl)cc1S(=O)(=O)N1CCCCCC1 | 2.6 | 5.03 |
| Cc1nc(-c2ccccc2)sc1C(=O)/C=C/c1ccccc1 | 10.3 | 14.5 |
| Cc1nn(-c2ccccc2)c(N)c1N=Nc1ccc(Cl)cc1 | 27.3 | 41.5 |
| CCN(CC(=O)NCc1cccs1)C(=O)c1ccc([N+](=O)[O-])o1 | 19 | 58.3 |
| CCOC(=O)CSc1nsc(SCC(=O)OCC)c1C#N | 11.9 | 13.6 |
| CSc1nsc(/C=C/Nc2ccc(O)cc2C)c1C#N | 27 | 43 |
| CCCCCCCCn1sccc1=O | 1.29 | 2.12 |
| CCOc1cccc(/C=C/c2ccc3cccc(O)c3n2)c1O | 1.38 | 18.5 |
| CC(C)CC[n+]1ccccc1/C=C/c1ccc(N(C)C)cc1 | 5.3 | 8.41 |
| CCOC(=O)C1CCCN(c2ncnc3c2cnn3-c2ccc(OC)cc2)C1 (stereo not given) | 2.3 | 10.7 |
| O=C1C(Cl)=C(N2CCOCC2)C(=O)N1c1cccc(Cl)c1 | 3.48 | 7.3 |
| O=C(Nc1ccc([N+](=O)[O-])cc1)Nc1ccc(OC(F)F)c(Cl)c1 | 2.83 | 4.03 |
| O=C1C(Br)=Cc2cccc3cccc1c23 | < 0.2 | < 0.2 |
| CC(C)OC(=O)c1ccc(NC(=S)NC(=O)c2cncc(Br)c2)cc1 | 52.4 | > 100 |
| CCOC(=O)c1ccc(N=c2sc(C(=O)OC)cc(=O)n2CCCN2CCOCC2)cc1 | 4.52 | 12 |
| CN(C)CCOc1nc(-c2ccccc2)nc2c1oc1ccccc12 | 11.8 | 16.3 |

| SMILES | IC50 [µM] | IC90 [µM] |
| --- | --- | --- |
| CC12CCC(=O)N1C(C(=O)Nc1ccc(SC(F)F)cc1)CS2 (stereo not given) | 30.2 | 63.1 |
| CN1OC(COC(=O)c2ccc(Cl)cc2Cl)CC1c1ccccc1 (stereo not given) | 2.43 | 16.3 |
| CCOC(=O)c1sc(C)c2c(=O)n(CC(=O)c3ccc(Br)cc3)nnc12 | 74.3 | > 100 |
| Cc1ccc(-c2nc3c(c(=O)c4ccccc4n3C)c(=O)n2Cc2ccco2)cc1 | 11.4 | 36.3 |
| Fc1ccc(N/N=C2/CC(c3ccccc3)Oc3ccccc32)c(F)c1 (stereo not given) | – | > 100 |
| COc1ccc(NC(=O)CN(C)CC(=O)Nc2sc3c(c2C(N)=O)CCC3)cc1 | 49.9 | 98 |
| O=C(/C=C/c1ccc(OCCCF)cc1)Nc1ccnc(-c2ccncc2)n1 | 37.5 | 68.8 |
| COc1ccc(-c2c(C#Cc3ccsc3)c3ccccc3n2C)cc1 | 25.5 | 37.8 |
| O=C(CNC(=O)c1ccc(Cl)cc1)c1ccc(Cl)cc1 | 96.6 | > 100 |
| Cc1ccccc1N1CCN(c2ncnc3c2cnn3Cc2ccc(Cl)cc2)CC1 | 5.12 | 8.72 |
| ClCc1nc2ccccc2c2ccccc12 | 6.3 | 17.2 |
| COC(=O)C1CC(=O)N(c2ccc(OCc3ccccc3Cl)cc2)C1 (stereo not given) | 0.52 | 3.52 |
| CC(=O)c1sc(NC(=O)c2cc(=O)c3ccccc3o2)nc1C | 14.3 | > 100 |
| CN1CCN2c3ccccc3Cc3ccccc3C2C1 (stereo not given) | 42.8 | > 100 |
| Cc1ccc(S(=O)(=O)n2ccc3c(OCCOCCNCc4ccc(F)cc4)cccc32)cc1 | 22.1 | 25.5 |
| O=C(NN=C1c2ccccc2-c2ccccc21)c1cccc(Br)c1 | 0.28 | > 100 |
| CN(C(=O)COC(=O)c1ccc([N+](=O)[O-])cc1Cl)C1CCCCC1 | 12.8 | 65.6 |
| Cc1nnc(SCc2ccccc2Cl)n(N)c1=O | 0.38 | 5.3 |
| CCOC1OC(=O)C(Cl)=C1Nc1ccccc1C (stereo not given) | 2.91 | 6.18 |
| NC(N)=N/N=C/c1ccc(N(c2ccccc2)c2ccccc2)cc1 | 10.9 | 13.7 |
| COc1cccc(N2CCN(c3ncnc4c3[nH]c3ccccc34)CC2C)c1 (stereo not given) | 24.2 | 35.5 |
| Cc1nnc(-c2ccccc2)c(=O)n1/N=C/c1c(O)ccc2ccccc12 | 24.1 | 27.3 |
| O=C1/C(=C\c2ccncc2)CCc2ccccc21 | 20.8 | 34.8 |

| SMILES | IC50 [µM] | IC90 [µM] |
| --- | --- | --- |
| CC(C)=CCOc1ccc([C@@H]2COc3c(ccc4c3C=CC(C)(C)O4)C2)c(O)c1 | 4.75 | 7.77 |
| COC(=O)CCc1nc2c(C#N)c(-c3ccc(Cl)cc3)ccn2n1 | 1.68 | 3.31 |
| CCOC(=O)c1ccc(NC(=O)Cn2ncc(Cl)c(Cl)c2=O)cc1 | < 0.2 | 0.44 |
| COC(=O)CN1C(c2ccc(Cl)cc2)=Nc2ccc(Cl)cc2C1c1ccccc1 (stereo not given) | 11.8 | 13.7 |
| Cc1ccc(NC(=O)CSc2nc3ccccc3c(=O)n2CCCN2CCCCC2)cc1Cl | 39 | 55.5 |
| CC1(C)CC(NC(=O)c2ccc(Cl)c(S(=O)(=O)N(Cc3ccccc3)c3ccccc3)c2)CC(C)(C)N1 | 24.5 | 27.9 |
| COc1ccc(-c2csc3ncnc(N4CCN(c5ccccc5OC)CC4)c23)cc1 | 23.1 | 26.2 |
| O=C(NCc1ccc2c(c1)OCO2)c1c(O)nc2sccn2c1=O | 40 | > 100 |
| c1ccc(Nc2nc(N3CCCCC3)nc(N3CCNCC3)n2)cc1 | 46.1 | 68.9 |
| CCCc1cc(=O)n2[nH]c(C)c(-c3ccc(Cl)cc3)c2n1 | 6.8 | 18.1 |
| COC(=O)N/N=C/c1c[n+]([O-])c2ccccc2[n+]1[O-] | 13.2 | 31.7 |
| O=C(N/N=C/c1c(F)c(F)c(F)c(F)c1F)c1cccc(S(=O)(=O)N2CCOCC2)c1 | – | > 100 |
| O=c1oc2ccccc2c(O)c1/C=C1\C=Nc2ccccc21 | 16.6 | 39.8 |
| COc1cc2cnc(-c3ccccc3)c(-c3ccc(C(F)(F)F)cc3)c2cc1OC | 44 | > 50 |
| CC(NC(=O)CCl)c1ccc(Cl)c(Cl)c1 (stereo not given) | 1.17 | 2.91 |
| CCCCCC(=O)N/N=C(\C)c1ccccn1 | 13.9 | 33.1 |
| COc1ccc(C2CC(=O)C3=C(C2)NC(C)=C(C#N)C3c2ccc(N(C)C)cc2)cc1 (stereo not given) | 19.6 | 33 |
| c1cc(Nc2cccc3nccnc23)c2nccnc2c1 | 9.75 | 23.2 |
| O=C(OCc1nc2ccccc2s1)c1ccc(Br)o1 | 18.9 | > 100 |
| CCCC[C@@H](CN[C@H](C)CNC)NCC1CCC(C(C)(C)C)CC1 (stereo not given in full) | 18 | 22.7 |
| CCOC(=O)c1sc2ncnc(NCC(c3cccs3)N(C)C)c2c1C (stereo not given) | 34.9 | 71.6 |
| C(=C\c1ccccc1)/C=N/Nc1nc2ccccc2s1 | – | > 100 |
| CCCNC1=C(N(C(C)=O)c2cccc(F)c2)C(=O)c2ccccc2C1=O | 11.4 | 20.1 |
